Test results from ChEMBL document CHEMBL5214989, “Overcoming Preclinical Safety Obstacles to Discover (S)-N-((1,2,3,5,6,7-Hexahydro-s-indacen-4-yl)carbamoyl)-6-(methylamino)-6,7-dihydro-5H-pyrazolo[5,1-b][1,3]oxazine-3-sulfonamide (GDC-2394): A Potent and Selective NLRP3 Inhibitor” (J Med Chem, 2022).
≈ marks a conversion by molar mass, not a printed value. Calls of active or inactive are those of the source. The calls are words filed in the database; no cut-off is given here.

Assays:
[1] = tested on: Rattus norvegicus; test: Anti-allodynic activity in MSU-induced Wistar rat gouty arthritis model assessed as mechanical allodynia at 50 mg/kg, iv administered once daily for 7 days and measured on day 2; type: functional, organism-based; settings: time 7.0 day
[2] = Half life in CD-1 mouse at 1 mg/kg, iv measured upto 24 hrs by LC-MS/MS analysis; type: ADME, organism-based; settings: in vivo
[3] = Volume of distribution at steady state in CD-1 mouse at 1 mg/kg, po or 1 mg/kg, iv measured upto 24 hrs by LC-MS/MS analysis; type: ADME, organism-based; settings: in vivo
[4] = Renal toxicity in cynomolgus monkey assessed as increase in blood urea nitrogen at 100 to 300 mg/kg/day for 14 days; type: organism-based, Macaca fascicularis; settings: in vivo, 336 h, dose 100-300 mg/kg/day, time 14 day
[5] = Plasma protein binding in dog relative to control; type: ADME, cell-free, Canis lupus familiaris; settings: read-out: PPB (converted)
[6] = Plasma protein binding in human relative to control; type: ADME, cell-free; settings: read-out: PPB (converted)
[7] = Oral bioavailability in Sprague-Dawley rat at 1 mg/kg measured upto 24 hrs by LC-MS/MS analysis; type: ADME, organism-based; settings: in vivo
[8] = Renal toxicity in cynomolgus monkey assessed as retrograde nephropathy at 100 to 300 mg/kg/day for 14 days; type: organism-based, Macaca fascicularis; settings: in vivo, 336 h, dose 100-300 mg/kg/day, time 14 day
[9] = Plasma protein binding in cynomolgus monkey relative to control; type: ADME, cell-free, Macaca fascicularis; settings: read-out: PPB (converted)
[10] = Volume of distribution at steady state in Sprague-Dawley rat at 1 mg/kg, po or 1 mg/kg, iv measured upto 24 hrs by LC-MS/MS analysis; type: ADME, organism-based; settings: in vivo
[11] = biological target: T1, hERG (KCNH2) (Homo sapiens, UniProt Q12809); test: Inhibition of hERG at 10 uM relative to control; type: toxicity
[12] = Cytotoxicity against human hepatocyte; type: toxicity, cell-based; settings: hepatocytes
[13] = Half life in Beagle dog at 1 mg/kg, iv measured upto 24 hrs by LC-MS/MS analysis; type: ADME, organism-based, Canis lupus familiaris; settings: in vivo
[14] = Renal toxicity in cynomolgus monkey assessed as increase in kidney weight at 100 to 300 mg/kg/day for 14 days; type: organism-based, Macaca fascicularis; settings: in vivo, 336 h, dose 100-300 mg/kg/day, time 14 day
[15] = Volume of distribution at steady state in Beagle dog at 1 mg/kg, po or 1 mg/kg, iv measured upto 24 hrs by LC-MS/MS analysis; type: ADME, organism-based, Canis lupus familiaris; settings: in vivo
[16] = Solubility of compound at pH 1.50 to 7.50 by RP-HPLC analysis; type: physicochemical; settings: buffer, pH 1.5
[17] = Oral bioavailability in CD-1 mouse at 1 mg/kg measured upto 24 hrs by LC-MS/MS analysis; type: ADME, organism-based; settings: in vivo
[18] = Oral bioavailability in Beagle dog at 1 mg/kg measured upto 24 hrs by LC-MS/MS analysis; type: ADME, organism-based, Canis lupus familiaris; settings: in vivo
[19] = Plasma protein binding in rat relative to control; type: ADME, cell-free; settings: read-out: PPB (converted)
[20] = biological target: T1, hERG (KCNH2); test: Inhibition of hERG at 1 uM relative to control; type: toxicity
[21] = Half life in cynomolgus monkey at 1 mg/kg, iv measured upto 24 hrs by LC-MS/MS analysis; type: ADME, organism-based, Macaca fascicularis; settings: in vivo
[22] = Half life in Sprague-Dawley rat at 1 mg/kg, iv measured upto 24 hrs by LC-MS/MS analysis; type: ADME, organism-based; settings: in vivo
[23] = Kinetic solubility of compound; type: physicochemical; settings: read-out: Kinetic_solubility
[24] = Renal toxicity in cynomolgus monkey at 100 mg/kg/day for 14 days; type: organism-based, Macaca fascicularis; settings: in vivo, 336 h, time 14 day
[25] = Plasma protein binding in mouse relative to control; type: ADME, cell-free; settings: read-out: PPB (converted)
[26] = Oral bioavailability in cynomolgus monkey at 1 mg/kg measured upto 24 hrs by LC-MS/MS analysis; type: ADME, organism-based, Macaca fascicularis; settings: in vivo
[27] = Apparent permeability across apical to basolateral side in dog MDCK cells; type: ADME, cell-based, Canis lupus familiaris
[28] = Volume of distribution at steady state in cynomolgus monkey at 1 mg/kg, po or 1 mg/kg, iv measured upto 24 hrs by LC-MS/MS analysis; type: ADME, organism-based, Macaca fascicularis; settings: in vivo
[29] = Renal toxicity in cynomolgus monkey assessed as minimal thymic lymphoid depletion at >= 300 mg/kg/day measured for 14 days; type: organism-based, Macaca fascicularis; settings: in vivo, 336 h, time 14 day
[30] = Renal toxicity in cynomolgus monkey upto 500 mg/kg/day measured for 14 days; type: organism-based, Macaca fascicularis; settings: in vivo, 336 h, time 14 day
[31] = Hepatic toxicity in cynomolgus monkey upto 500 mg/kg/day measured for 14 days; type: organism-based, Macaca fascicularis; settings: in vivo, 336 h, time 14 day

T1 sequence (Q12809 whole entry): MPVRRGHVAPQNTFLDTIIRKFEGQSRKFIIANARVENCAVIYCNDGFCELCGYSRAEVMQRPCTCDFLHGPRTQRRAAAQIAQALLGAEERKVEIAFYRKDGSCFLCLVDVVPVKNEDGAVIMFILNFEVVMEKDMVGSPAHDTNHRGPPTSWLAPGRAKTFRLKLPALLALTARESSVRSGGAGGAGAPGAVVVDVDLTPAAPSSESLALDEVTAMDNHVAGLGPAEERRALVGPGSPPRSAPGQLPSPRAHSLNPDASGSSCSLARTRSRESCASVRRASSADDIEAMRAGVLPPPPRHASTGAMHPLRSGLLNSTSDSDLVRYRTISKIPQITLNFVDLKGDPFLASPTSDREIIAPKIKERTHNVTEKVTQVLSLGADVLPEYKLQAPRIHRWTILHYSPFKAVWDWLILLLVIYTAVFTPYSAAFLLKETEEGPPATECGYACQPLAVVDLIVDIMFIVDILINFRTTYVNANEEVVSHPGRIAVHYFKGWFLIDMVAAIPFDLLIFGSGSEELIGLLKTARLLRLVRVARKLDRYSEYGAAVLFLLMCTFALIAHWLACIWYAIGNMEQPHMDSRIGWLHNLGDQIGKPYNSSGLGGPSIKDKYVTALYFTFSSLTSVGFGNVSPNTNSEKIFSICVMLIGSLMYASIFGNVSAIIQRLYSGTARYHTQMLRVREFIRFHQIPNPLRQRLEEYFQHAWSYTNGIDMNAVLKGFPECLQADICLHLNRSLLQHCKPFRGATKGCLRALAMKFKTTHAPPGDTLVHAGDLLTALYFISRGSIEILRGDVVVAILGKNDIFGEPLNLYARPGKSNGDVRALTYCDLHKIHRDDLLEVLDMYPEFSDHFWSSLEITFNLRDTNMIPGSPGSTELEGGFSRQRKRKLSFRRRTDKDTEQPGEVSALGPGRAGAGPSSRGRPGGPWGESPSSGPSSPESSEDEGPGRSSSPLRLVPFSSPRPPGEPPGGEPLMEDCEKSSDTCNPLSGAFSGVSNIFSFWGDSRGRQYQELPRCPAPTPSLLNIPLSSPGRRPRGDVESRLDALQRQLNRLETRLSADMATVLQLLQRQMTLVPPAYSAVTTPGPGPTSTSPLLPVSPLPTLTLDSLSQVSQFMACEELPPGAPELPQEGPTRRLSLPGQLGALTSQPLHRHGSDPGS

Row | SMILES | half-life [2] | Vdss [3] | fraction unbound [5] | fraction unbound [6] | bioavailability [7] | fraction unbound [9] | Vdss [10] | inhibition at 10 µM [11] | half-life [13] | Vdss [15] | solubility [16] | bioavailability [17] | bioavailability [18] | fraction unbound [19] | inhibition at 1 µM [20] | half-life [21] | half-life [22] | solubility kinetic at 24 h [23] | fraction unbound [25] | bioavailability [26] | further results
1 | C=CC1=C(C(=O)O)N2C(=O)[C@@H](NC(=O)/C(=N\OCOC(=O)C(C)(C)C)c3csc(N)n3)C2SC1 (stereo partly drawn) |  |  |  |  |  |  |  |  |  |  |  |  |  |  |  |  |  |  |  |  | Activity [1]: Active
2 | O=C(Nc1c2c(cc3c1CCC3)CCC2)NS(=O)(=O)c1cnn2c1OCCC2 [JT-001] | 1.9 h | 0.2 L/kg | 0.045 | 0.014 | 30% | 0.04 | 0.2 L/kg | 9.7% | 2.9 h | 0.2 L/kg | Soluble | 18% | 28% | 0.014 | 4.1% | 1.4 h | 1.1 h | 102 µM (≈ 41.1 µg/mL) | 0.009 | 17% | Activity [4]: Toxic; Activity [8]: Toxic; IC50 [12]: > 100 µM; Activity [14]: Toxic; Activity [24]: Toxic; Papp A→B [27]: 1.8 ×10⁻⁶ cm/s; Vdss [28]: 0.08 L/kg
3 | CN[C@@H]1COc2c(S(=O)(=O)NC(=O)Nc3c4c(cc5c3CCC5)CCC4)cnn2C1 | 1.2 h | 0.72 L/kg | 0.114 | 0.044 | 33% | 0.082 | 0.29 L/kg | 0.2% | 0.99 h | 0.67 L/kg | Soluble | 80% | 78% | 0.07 | -3.1% | 0.89 h | 4.4 h | 105 µM (≈ 45.3 µg/mL) | 0.024 | 53% | Activity [29]: Non-Toxic; Activity [30]: Non-Toxic; Activity [31]: Non-Toxic; Papp A→B [27]: 0.077 ×10⁻⁶ cm/s; Vdss [28]: 0.18 L/kg
